Test results: patent US20090149417A1, “Methods and compositions for the treatment of cancer using benzopyrone-type PARP inhibitors” (priority 2007, published 2009)

System: Colo357FG
Assay: Luciferase-expressing pancreatic cancer orthotopic nude mouse model
Format: in vivo
Protocol: The therapeutic efficacy of IIIg on tumor growth and survival is evaluated in different luciferase-expressing pancreatic cancer orthotopic nude mouse models using an IVIS100 Imaging System, allowing a quantitative real time monitoring of tumor growth.
Mice are monitored daily for signs of toxicity including weight loss, diarrhea, inactivity, and general appearance.
Three days after the orthotopic implantation of 1.0×10^6 COL0357FG tumor cells in 50 μL of HBSS, when bioluminescence imaging confirmed that tumors are well established, in one experiment, mice are randomly allocated into three groups (n=10 mice per group) to receive one of the following treatments. (a) Vehicle solution for 50 μL of sterile saline; (b) IIIg (25 mg/kg) biweekly i.p.; (c) IIIg (100 mg/kg) biweekly i.p. Treatments are continued for 4 weeks. All mice are weighed weekly and observed for tumor growth. Tumor diameter is assessed with a Vernier caliper, and tumor volume (mm^3) is calculated as d^2×D/2, wherein d and D represent the shortest and longest diameters, respectively. Bulky disease is considered present when tumor burden is prominent in the mouse abdomen (tumor volume, >=2,000 mm^3).
In another experiment, mice are randomly allocated into four groups (n=10 mice per group) to receive one of the following treatments. (a) Vehicle solution for 50 μL of sterile saline; (b) IIIg (200 mg/kg) once weekly i.p.; (c) IIIg (100 mg/kg) biweekly i.p; (d) IIIg (40 mg/kg) once daily i.p. Treatments are continued for 4 weeks. All mice are weighed weekly and observed for tumor growth. Tumor diameter is assessed with a Vernier caliper, and tumor volume (mm^3) is calculated as d^2×D/2, wherein d and D represent the shortest and longest diameters, respectively. Bulky disease is considered present when tumor burden is prominent in the mouse abdomen (tumor volume, >=2,000 mm^3).
In another experiment, mice are randomly allocated into eight groups to receive one of the following treatments via oral or ip administration. (a) Vehicle solution for 50 μL of sterile saline (oral); (b) Gemcitabine (25 mg/kg) biweekly for 4 weeks (ip); (c) IIIg (200 mg/kg) once weekly (oral); (d) IIIg (200 mg/kg) biweekly (oral); (e) IIIg (200 mg/kg) once daily (oral); (f) IIIg (400 mg/kg) once weekly (oral); (g) IIIg (400 mg/kg) biweekly (oral); (h) IIIg (400 mg/kg) once daily (oral). In all treatments, IIIg is given orally. Treatments are continued for 4 weeks. All mice are weighed weekly and observed for tumor growth. Tumor diameter is assessed with a Vernier caliper, and tumor volume (mm^3) is calculated as d^2×D/2, wherein d and D represent the shortest and longest diameters, respectively. Bulky disease is considered present when tumor burden is prominent in the mouse abdomen (tumor volume, >=2,000 mm^3).
When at least 6 of 10 mice in a treatment group presented with bulky disease, the median survival duration for that group is considered to be reached. At the median survival duration of the control group, the tumor growth in mice in all groups is evaluated using the bioluminescence emitted by the tumor cells. Bioluminescence imaging is conducted using a cryogenically cooled IVIS 100 imaging system coupled to a data acquisition computer running Living Image software (Xenogen). The mice are sacrificed by carbon dioxide inhalation when evidence of advanced bulky disease is present. The day of sacrifice is considered the day of death for survival evaluation.
Three days after the orthotopic implantation of 1.0×10^6 COL0357FG tumor cells in 50 μL of HBSS, when bioluminescence imaging confirmed that tumors are well established, mice are randomly allocated into four groups to receive one of the following treatments: (a) Vehicle solution for 50 μL of sterile saline; (b) IIIg (400 mg/kg) once daily for 4 weeks [(QD5+R2)×4]; (c) oxaliplatin (10 mg/kg) biweekly for 4 weeks (ip); (d) combination of IIIg (400 mg/kg) once daily for 4 weeks [(QD5+R2)×4] with oxaliplatin (10 mg/kg biweekly, ip). […]

[1] = intraperitoneal injection, 200 mg/kg QW×4
[2] = oral, 400 mg/kg [QD5+R2]×4, compared to no treatment and standard gemcitabine treatment

O=c1ccc2c(I)c([N+](=O)[O-])ccc2o1 [IIIg, 5-iodo-6-nitro-benzopyrone]
Signs of toxicity (100 mg/kg/day 2/week×4 weeks): without signs of toxicity
Survival (100 mg/kg/day 2/week×4 weeks): prolongs survival
Tumor burden (100 mg/kg/day 2/week×4 weeks): significantly reduces the tumor burden
In vivo antitumor effect, comparison of schedules (200 mg/kg/week once a week in comparison with 2 times/week or daily schedule, preliminary results): greater in vivo antitumor effect
Anti-tumor activity of the combination (IIIg 400 mg/kg once daily [(QD5+R2)×4] with oxaliplatin 10 mg/kg biweekly, ip): potent synergistic anti-tumor activity
Survival [1]: prolongs the survival
Tumor burden [1]: potently reduces the tumor burden
Survival [2]: prolongs survival
Tumor burden [2]: significantly reduces the tumor burden
